Where a SMILES comes first, the peptide text is derived from it. [ ]: non-standard residue; d: D form. pGlu = O=C1CC[C@@H](C(=O)O)N1; Thz = O=C(O)[C@@H]1CSCN1
test: (§1) The drug is tested on Z-030 corresponding to mouse gut metagenome with ENA study accession number: PRJEB37062 and ENA sample accession number: ERS12561829 for biotransformation under anaerobic condition. The drug concentrations were measured over 9 timepoints collected between 0 and 24 hours of incubation by liquid-chromatography-coupled mass spectrometry (LC–MS); conditions: 2 µM
Also: call rule not given here.

Row | Bacterial Biotransformation | SMILES
1 | Compound NOT metabolized | O=C(NCc1ccccc1)OCCO [BURAMATE]
2 | Compound NOT metabolized | O=C1CC[C@@H](C(=O)N2CSC[C@H]2C(=O)O)N1 [PIDOTIMOD] ([pGlu]-[Thz]-OH)
3 | Compound NOT metabolized | c1ccc([C@H]2CN3CCSC3=N2)cc1 [LEVAMISOLE]
4 | Compound NOT metabolized | COc1ccc(CCN(C)CCCC(C#N)(c2ccc(OC)c(OC)c2)C(C)C)cc1OC (stereo not given)

test: as §1, with “Z-028” for “Z-030”, “ERS12561827” for “ERS12561829”; conditions: 2 µM

Row | Bacterial Biotransformation | SMILES
5 | Compound NOT metabolized | O=C(NCc1ccccc1)OCCO [BURAMATE]
6 | Compound NOT metabolized | O=C1CC[C@@H](C(=O)N2CSC[C@H]2C(=O)O)N1 [PIDOTIMOD] ([pGlu]-[Thz]-OH)
7 | Compound metabolized | c1ccc([C@H]2CN3CCSC3=N2)cc1 [LEVAMISOLE]
8 | Compound metabolized | COc1ccc(CCN(C)CCCC(C#N)(c2ccc(OC)c(OC)c2)C(C)C)cc1OC (stereo not given)

test: as §1, with “Z-027” for “Z-030”, “to” for “to mouse gut”, “ERS12561826” for “ERS12561829”; conditions: 2 µM

Row | Bacterial Biotransformation | SMILES
9 | Compound NOT metabolized | O=C(NCc1ccccc1)OCCO [BURAMATE]
10 | Compound NOT metabolized | O=C1CC[C@@H](C(=O)N2CSC[C@H]2C(=O)O)N1 [PIDOTIMOD] ([pGlu]-[Thz]-OH)
11 | Compound NOT metabolized | c1ccc([C@H]2CN3CCSC3=N2)cc1 [LEVAMISOLE]
12 | Compound NOT metabolized | COc1ccc(CCN(C)CCCC(C#N)(c2ccc(OC)c(OC)c2)C(C)C)cc1OC (stereo not given)

test: as §1, with “Z-026” for “Z-030”, “to” for “to mouse gut”, “ERS12561825” for “ERS12561829”; conditions: 2 µM

Row | Bacterial Biotransformation | SMILES
13 | Compound NOT metabolized | O=C(NCc1ccccc1)OCCO [BURAMATE]
14 | Compound NOT metabolized | COc1ccc(CCN(C)CCCC(C#N)(c2ccc(OC)c(OC)c2)C(C)C)cc1OC (stereo not given)

test: as §1, with “Z-024” for “Z-030”, “pig” for “mouse”, “ERS12561823” for “ERS12561829”; conditions: 2 µM

Row | Bacterial Biotransformation | SMILES
15 | Compound NOT metabolized | O=C(NCc1ccccc1)OCCO [BURAMATE]
16 | Compound metabolized | O=C1CC[C@@H](C(=O)N2CSC[C@H]2C(=O)O)N1 [PIDOTIMOD] ([pGlu]-[Thz]-OH)
17 | Compound metabolized | COc1ccc(CCN(C)CCCC(C#N)(c2ccc(OC)c(OC)c2)C(C)C)cc1OC (stereo not given)

test: as §1, with “Z-020” for “Z-030”, “rabbit” for “mouse”, “ERS12561819” for “ERS12561829”; conditions: 2 µM

Row | Bacterial Biotransformation | SMILES
18 | Compound NOT metabolized | O=C1CC[C@@H](C(=O)N2CSC[C@H]2C(=O)O)N1 [PIDOTIMOD] ([pGlu]-[Thz]-OH)
19 | Compound NOT metabolized | c1ccc([C@H]2CN3CCSC3=N2)cc1 [LEVAMISOLE]
20 | Compound metabolized | COc1ccc(CCN(C)CCCC(C#N)(c2ccc(OC)c(OC)c2)C(C)C)cc1OC (stereo not given)

test: as §1, with “Z-010” for “Z-030”, “to” for “to mouse gut”, “ERS12561810” for “ERS12561829”; conditions: 2 µM

Row | Bacterial Biotransformation | SMILES
21 | Compound NOT metabolized | O=C(NCc1ccccc1)OCCO [BURAMATE]
22 | Compound metabolized | O=C1CC[C@@H](C(=O)N2CSC[C@H]2C(=O)O)N1 [PIDOTIMOD] ([pGlu]-[Thz]-OH)

test: as §1, with “Z-004” for “Z-030”, “to” for “to mouse gut”, “ERS12561804” for “ERS12561829”; conditions: 2 µM

Row | Bacterial Biotransformation | SMILES
23 | Compound NOT metabolized | O=C(NCc1ccccc1)OCCO [BURAMATE]
24 | Compound NOT metabolized | O=C1CC[C@@H](C(=O)N2CSC[C@H]2C(=O)O)N1 [PIDOTIMOD] ([pGlu]-[Thz]-OH)
25 | Compound NOT metabolized | c1ccc([C@H]2CN3CCSC3=N2)cc1 [LEVAMISOLE]
26 | Compound NOT metabolized | COc1ccc(CCN(C)CCCC(C#N)(c2ccc(OC)c(OC)c2)C(C)C)cc1OC (stereo not given)

test: as §1, with “Z-002” for “Z-030”, “rabbit” for “mouse”, “ERS12561802” for “ERS12561829”; conditions: 2 µM

Row | Bacterial Biotransformation | SMILES
27 | Compound NOT metabolized | O=C(NCc1ccccc1)OCCO [BURAMATE]
28 | Compound NOT metabolized | O=C1CC[C@@H](C(=O)N2CSC[C@H]2C(=O)O)N1 [PIDOTIMOD] ([pGlu]-[Thz]-OH)
29 | Compound metabolized | c1ccc([C@H]2CN3CCSC3=N2)cc1 [LEVAMISOLE]
30 | Compound metabolized | COc1ccc(CCN(C)CCCC(C#N)(c2ccc(OC)c(OC)c2)C(C)C)cc1OC (stereo not given)

test: as §1, with “Z-001” for “Z-030”, “ERS12561801” for “ERS12561829”; conditions: 2 µM

Row | Bacterial Biotransformation | SMILES
31 | Compound NOT metabolized | O=C(NCc1ccccc1)OCCO [BURAMATE]
32 | Compound NOT metabolized | O=C1CC[C@@H](C(=O)N2CSC[C@H]2C(=O)O)N1 [PIDOTIMOD] ([pGlu]-[Thz]-OH)
33 | Compound NOT metabolized | c1ccc([C@H]2CN3CCSC3=N2)cc1 [LEVAMISOLE]
34 | Compound NOT metabolized | COc1ccc(CCN(C)CCCC(C#N)(c2ccc(OC)c(OC)c2)C(C)C)cc1OC (stereo not given)

test: as §1, with “WLS-370” for “Z-030”, “human” for “mouse”, “ERS12561793” for “ERS12561829”; conditions: 2 µM

Row | Bacterial Biotransformation | SMILES
35 | Compound NOT metabolized | O=C(NCc1ccccc1)OCCO [BURAMATE]
36 | Compound NOT metabolized | O=C1CC[C@@H](C(=O)N2CSC[C@H]2C(=O)O)N1 [PIDOTIMOD] ([pGlu]-[Thz]-OH)
37 | Compound metabolized | c1ccc([C@H]2CN3CCSC3=N2)cc1 [LEVAMISOLE]
38 | Compound metabolized | COc1ccc(CCN(C)CCCC(C#N)(c2ccc(OC)c(OC)c2)C(C)C)cc1OC (stereo not given)

test: as §1, with “WLS-170” for “Z-030”, “human” for “mouse”, “ERS12561762” for “ERS12561829”; conditions: 2 µM

Row | Bacterial Biotransformation | SMILES
39 | Compound NOT metabolized | O=C(NCc1ccccc1)OCCO [BURAMATE]
40 | Compound NOT metabolized | O=C1CC[C@@H](C(=O)N2CSC[C@H]2C(=O)O)N1 [PIDOTIMOD] ([pGlu]-[Thz]-OH)
41 | Compound metabolized | c1ccc([C@H]2CN3CCSC3=N2)cc1 [LEVAMISOLE]
42 | Compound metabolized | COc1ccc(CCN(C)CCCC(C#N)(c2ccc(OC)c(OC)c2)C(C)C)cc1OC (stereo not given)

test: as §1, with “WLS-090” for “Z-030”, “human” for “mouse”, “ERS12561753” for “ERS12561829”; conditions: 2 µM

Row | Bacterial Biotransformation | SMILES
43 | Compound NOT metabolized | O=C(NCc1ccccc1)OCCO [BURAMATE]
44 | Compound NOT metabolized | O=C1CC[C@@H](C(=O)N2CSC[C@H]2C(=O)O)N1 [PIDOTIMOD] ([pGlu]-[Thz]-OH)
45 | Compound metabolized | COc1ccc(CCN(C)CCCC(C#N)(c2ccc(OC)c(OC)c2)C(C)C)cc1OC (stereo not given)

conditions: human gut metagenome, 24 h, 2 µM

Row | Bacterial Biotransformation | SMILES
46 | Compound NOT metabolized | O=C(NCc1ccccc1)OCCO [BURAMATE]
47 | Compound NOT metabolized | O=C1CC[C@@H](C(=O)N2CSC[C@H]2C(=O)O)N1 [PIDOTIMOD] ([pGlu]-[Thz]-OH)
48 | Compound metabolized | c1ccc([C@H]2CN3CCSC3=N2)cc1 [LEVAMISOLE]
49 | Compound metabolized | COc1ccc(CCN(C)CCCC(C#N)(c2ccc(OC)c(OC)c2)C(C)C)cc1OC (stereo not given)

conditions: human gut metagenome, 24 h, 2 µM; remark: another data set of the same source

Row | Bacterial Biotransformation | SMILES
50 | Compound NOT metabolized | O=C(NCc1ccccc1)OCCO [BURAMATE]
51 | Compound metabolized | c1ccc([C@H]2CN3CCSC3=N2)cc1 [LEVAMISOLE]
52 | Compound metabolized | COc1ccc(CCN(C)CCCC(C#N)(c2ccc(OC)c(OC)c2)C(C)C)cc1OC (stereo not given)

conditions: human gut metagenome, 24 h, 2 µM; remark: another data set of the same source

Row | Bacterial Biotransformation | SMILES
53 | Compound NOT metabolized | O=C(NCc1ccccc1)OCCO [BURAMATE]
54 | Compound metabolized | c1ccc([C@H]2CN3CCSC3=N2)cc1 [LEVAMISOLE]
55 | Compound NOT metabolized | COc1ccc(CCN(C)CCCC(C#N)(c2ccc(OC)c(OC)c2)C(C)C)cc1OC (stereo not given)

conditions: human gut metagenome, 24 h, 2 µM; remark: another data set of the same source

Row | Bacterial Biotransformation | SMILES
56 | Compound NOT metabolized | O=C(NCc1ccccc1)OCCO [BURAMATE]
57 | Compound NOT metabolized | O=C1CC[C@@H](C(=O)N2CSC[C@H]2C(=O)O)N1 [PIDOTIMOD] ([pGlu]-[Thz]-OH)
58 | Compound metabolized | c1ccc([C@H]2CN3CCSC3=N2)cc1 [LEVAMISOLE]
59 | Compound NOT metabolized | COc1ccc(CCN(C)CCCC(C#N)(c2ccc(OC)c(OC)c2)C(C)C)cc1OC (stereo not given)

conditions: human gut metagenome, 24 h, 2 µM; remark: another data set of the same source

Row | Bacterial Biotransformation | SMILES
60 | Compound NOT metabolized | O=C(NCc1ccccc1)OCCO [BURAMATE]
61 | Compound NOT metabolized | O=C1CC[C@@H](C(=O)N2CSC[C@H]2C(=O)O)N1 [PIDOTIMOD] ([pGlu]-[Thz]-OH)
62 | Compound metabolized | c1ccc([C@H]2CN3CCSC3=N2)cc1 [LEVAMISOLE]
63 | Compound metabolized | COc1ccc(CCN(C)CCCC(C#N)(c2ccc(OC)c(OC)c2)C(C)C)cc1OC (stereo not given)

conditions: human gut metagenome, 24 h, 2 µM; remark: another data set of the same source

Row | Bacterial Biotransformation | SMILES
64 | Compound NOT metabolized | O=C(NCc1ccccc1)OCCO [BURAMATE]
65 | Compound metabolized | O=C1CC[C@@H](C(=O)N2CSC[C@H]2C(=O)O)N1 [PIDOTIMOD] ([pGlu]-[Thz]-OH)
66 | Compound metabolized | c1ccc([C@H]2CN3CCSC3=N2)cc1 [LEVAMISOLE]
67 | Compound metabolized | COc1ccc(CCN(C)CCCC(C#N)(c2ccc(OC)c(OC)c2)C(C)C)cc1OC (stereo not given)

conditions: human gut metagenome, 24 h, 2 µM; remark: another data set of the same source

Row | Bacterial Biotransformation | SMILES
68 | Compound NOT metabolized | O=C(NCc1ccccc1)OCCO [BURAMATE]
69 | Compound NOT metabolized | O=C1CC[C@@H](C(=O)N2CSC[C@H]2C(=O)O)N1 [PIDOTIMOD] ([pGlu]-[Thz]-OH)
70 | Compound metabolized | COc1ccc(CCN(C)CCCC(C#N)(c2ccc(OC)c(OC)c2)C(C)C)cc1OC (stereo not given)
